Legend:
HepG2 cells = experiment: TG-HDL2 internalization by HepG2 cells; assay type: cell-based, human; settings: 10 min at 37° C.; for effect on the stimulation by ADP of the TG-HDL2 internalization: ADP 100 nM + A2P5P 100 μM or MRS2179 10 μM
Protocol: Cells were incubated for 10 minutes at 37° C. with 75 μg/ml^125I-TG-HDL2 without (control) or with apolipoprotein A-I 10 μg/ml (a), ADP 100 nM (b), AR-C69931MX 100 nM (c), ADP 100 nM+AR-C69931MX 100 nM (d), ADP 100 nM+[…] 100 μM (e), ADP 100 nM+MRS2179 10 μM (f). […] Internalization assays were performed as described in Guendouzi et al., (Biochemistry, 1998, 37: 14974-80) on HepG2 cells, obtained from the American Type Culture Collection ([…]). Cells were incubated for 10 minutes at 37° C. with 75 μg/ml of either ^125I-TG-HDL2, ^125I-HDL3 or ^125I-LDL. After washing and dissociation at 4° C. in phosphate buffered saline (PBS), cell radioactivity was determined using a Wallac 1261 multigamma apparatus. Prior experiments, cells were plated in polylysine-coated 24-multiwell plates (Falcon) at 4×10^4 cells per well. Cells were grown in Dulbecco's modified Eagles medium supplemented with 10% fetal calf serum, 100 units/ml penicillin, and 100 μg/ml streptomycin at 37° C. in a 5% CO2 and 95% air incubator. Medium was changed every 2 or 3 days, and the cells were subcultured every 7-8 days. Results are expressed as a percentage of internalization with respect to the control value (set at 0). Control corresponded to a basal value of internalization, amounting to 400 ng, 300 ng, 200 ng of TG-HDL2, HDL3 and LDL per mg of cells protein respectively for 10 minutes. Data as a mean ±SEM of at least 7, 5, 6 independent experiments, for TG-HDL2, HDL3 and LDL respectively.

human P2Y13 receptor = target: T1, human P2Y13 receptor (Homo sapiens, UniProt Q9BPV8); experiment: TG-HDL2 internalization by HepG2 cells after P2Y13 receptor silencing by siRNA; assay type: cell-based; settings: HepG2, P2Y13 siRNA 100 nM, 48 h; apoA-I 10 μg/ml, ADP 100 nM, AR-C69931MX 100 nM
T1 construct: host or cells: HepG2
T1 sequence (Q9BPV8 1-354): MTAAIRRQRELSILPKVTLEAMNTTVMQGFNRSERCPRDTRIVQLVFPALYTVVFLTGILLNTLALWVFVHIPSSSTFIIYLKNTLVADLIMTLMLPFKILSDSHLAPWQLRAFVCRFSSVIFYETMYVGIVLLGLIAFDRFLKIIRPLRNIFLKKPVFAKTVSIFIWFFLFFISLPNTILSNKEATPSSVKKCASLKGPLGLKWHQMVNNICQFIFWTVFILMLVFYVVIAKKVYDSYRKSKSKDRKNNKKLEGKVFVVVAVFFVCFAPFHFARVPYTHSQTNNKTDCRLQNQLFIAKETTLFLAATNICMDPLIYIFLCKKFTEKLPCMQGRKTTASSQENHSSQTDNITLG
Protocol: Experiment was performed as in FIG. 2A with non-specific control siRNA (a, b, c) or with siRNA directed to human P2Y13 receptor (d, e, f, g) (n>7); (*) p<0.05 (unpaired t-test).
(§1) Internalization assays were performed as described in Guendouzi et al., (Biochemistry, 1998, 37: 14974-80) on HepG2 cells, obtained from the American Type Culture Collection ([…]). Cells were incubated for 10 minutes at 37° C. with 75 μg/ml of either ^125I-TG-HDL2, ^125I-HDL3 or ^125I-LDL. After washing and dissociation at 4° C. in phosphate buffered saline (PBS), cell radioactivity was determined using a Wallac 1261 multigamma apparatus.
(§2) The silencing of the different P2Y receptors were carried-out using the siRNA technique. The siRNA sequenced targeting human P2Y13 receptor (Gene Bank GB/EMBL/DDBJ accession number AF295368) was from position 406 or 359 relative to the start codon. The siRNA duplex (21-nt-RNAs) in deprotected and desalted form, the siRNA targeting human P2Y1 receptor (a mix of 4 siRNAs, M-005689), and the non-specific control siRNA (D-001206-01) were purchased from Dharmacon Inc. Subconfluent HepG2 cells were transiently transfected with siRNAs (final concentration, 100 nM) using Oligofectamine™ according to the manufacturer's protocole (Invitrogen). Cells were usually assayed 48 hours after transfection. Specific silencing effect was confirmed by at least three independent experiments.
Results are expressed as a percentage of internalization with respect to the control value (set at 0). Control corresponded to a basal value of internalization, amounting to 400 ng, 300 ng, 200 ng of TG-HDL2, HDL3 and LDL per mg of cells protein respectively for 10 minutes. Data as a mean ±SEM of at least 7, 5, 6 independent experiments, for TG-HDL2, HDL3 and LDL respectively.

human P2Y1 receptor = target: T2, human P2Y1 receptor (Homo sapiens, UniProt P47900); experiment: TG-HDL2 internalization by HepG2 cells after P2Y1 receptor silencing by siRNA; assay type: cell-based; settings: HepG2, pool of 4 P2Y1 siRNAs 100 nM, 48 h; apoA-I 10 μg/ml, ADP 100 nM, AR-C69931MX 100 nM
T2 construct: host or cells: HepG2
T2 sequence (P47900 whole entry): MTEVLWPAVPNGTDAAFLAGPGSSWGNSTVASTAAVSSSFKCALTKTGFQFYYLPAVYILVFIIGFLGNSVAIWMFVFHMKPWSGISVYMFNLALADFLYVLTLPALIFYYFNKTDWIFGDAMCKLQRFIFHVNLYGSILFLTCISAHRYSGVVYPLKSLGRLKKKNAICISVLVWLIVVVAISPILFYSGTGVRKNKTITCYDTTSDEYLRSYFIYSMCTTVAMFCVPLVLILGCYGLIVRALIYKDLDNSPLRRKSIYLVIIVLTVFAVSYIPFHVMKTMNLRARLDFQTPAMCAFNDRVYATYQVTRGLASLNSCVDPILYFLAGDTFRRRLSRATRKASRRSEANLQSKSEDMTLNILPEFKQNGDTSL
Protocol: HepG2 cells were transiently transfected with siRNA designated to human P2Y1 receptor (columns d, e, f, g) or with non specific siRNA as control (a, b, c). 48 hours later, cells were incubated for 10 minutes at 37° C. with 75 μg/ml ^125I-TG HDL2 without (control) or with apolipoprotein A-I 10 μg/ml (a and d), ADP 100 nM (b and e), AR-C69931MX 100 nM (c and f), PBS (g). Data are expressed as a percentage of internalized radioactivity with respect to the control value (set as 0) (n>5); (*) p<0.05 (unpaired t-test).
as §1, §2
Results are expressed as a percentage of internalization with respect to the control value (set at 0). Control corresponded to a basal value of internalization, amounting to 400 ng, 300 ng, 200 ng of TG-HDL2, HDL3 and LDL per mg of cells protein respectively for 10 minutes. […]

effect of P2Y13 receptor silencing on TG-HDL2 endocytosis after stimulation (human P2Y13 receptor)	effect of P2Y1 receptors silencing on the stimulation of TG-HDL2 endocytosis (human P2Y1 receptor)	Compound	effect on the stimulation by ADP of the TG-HDL2 internalization (HepG2 cells)	internalization of 125I-TG-HDL2 by HepG2 cells, increase above control cells (HepG2 cells; 75 μg/ml 125I-TG-HDL2, apoA-I 10 μg/ml, ADP 100 nM, AR-C69931MX 100 nM alone) [%]
		Nc1ncnc2c1ncn2[C@@H]1O[C@H](COP(=O)(O)O)[C@@H](O)[C@H]1OP(=O)(O)O [A2P5P]	no effect	
		CNc1ncnc2c1ncn2[C@H]1C[C@H](OP(=O)(O)O)[C@@H](COP(=O)(O)O)O1 [MRS2179]	no effect	
dramatic inhibition	no effect	apoA-I: HDL apolipoprotein A-I; generates ADP through activation of the ectopic form of ATP synthase		20

From patent publication US20070249555A1, “Use of Atp Analogues for Treatment of Cardiovascular Diseases” (INSTITUT NATIONAL DE LA SANTE ET DE LA RECHERCHE MEDICALE …, priority 2004, published 2007)
